Data as given in the kinase profiling compilation of Christmann-Franck et al. (2016).

Experiments:
Test in all cases: KINOMEscan competition binding
Conditions in all cases: compound 10.0 µM
PRKCE (human) = PRKCE (human) (UniProt Q02156)
ADCK3 (human) = ADCK3 (human) (UniProt Q8NI60)
LIMK1 (human) = LIMK1 (human) (UniProt P53667)
PDPK1 (human) = PDPK1 (human) (UniProt O15530)
PRKD2 (human) = PRKD2 (human) (UniProt Q9BZL6)
INSRR (human) = INSRR (human) (UniProt P14616)
MAPKAPK5 (human) = MAPKAPK5 (human) (UniProt Q8IW41)
MAPK14 (human) = MAPK14 (human) (UniProt Q16539)
[1] = molecular target: JAK3 JH1 catalytic (human) (UniProt P52333)
RIOK2 (human) = RIOK2 (human) (UniProt Q9BVS4)
MYO3A (human) = MYO3A (human) (UniProt Q8NEV4)
PRKACA (human) = PRKACA (human) (UniProt P17612)
BMPR1B (human) = BMPR1B (human) (UniProt O00238)
Chain of BMPR1B (human) (O00238 whole entry, looked up): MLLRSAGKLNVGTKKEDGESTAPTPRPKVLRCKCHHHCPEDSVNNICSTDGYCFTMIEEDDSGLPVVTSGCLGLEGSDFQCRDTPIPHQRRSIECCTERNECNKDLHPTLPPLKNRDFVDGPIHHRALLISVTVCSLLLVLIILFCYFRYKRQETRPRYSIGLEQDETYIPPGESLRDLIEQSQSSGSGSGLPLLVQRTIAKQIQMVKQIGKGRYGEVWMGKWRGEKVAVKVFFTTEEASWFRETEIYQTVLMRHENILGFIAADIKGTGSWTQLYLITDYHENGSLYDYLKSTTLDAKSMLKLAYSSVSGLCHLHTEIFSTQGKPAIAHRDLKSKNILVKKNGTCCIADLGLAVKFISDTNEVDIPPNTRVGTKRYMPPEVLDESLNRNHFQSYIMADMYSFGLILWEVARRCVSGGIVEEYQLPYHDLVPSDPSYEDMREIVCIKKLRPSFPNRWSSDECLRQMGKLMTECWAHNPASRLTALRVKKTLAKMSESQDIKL

TIE1 (human) = TIE1 (human) (UniProt P35590)
SIK1 (human) = SIK1 (human) (UniProt P57059)
NEK9 (human) = NEK9 (human) (UniProt Q8TD19)
Chain of NEK9 (human) (Q8TD19 whole entry, looked up): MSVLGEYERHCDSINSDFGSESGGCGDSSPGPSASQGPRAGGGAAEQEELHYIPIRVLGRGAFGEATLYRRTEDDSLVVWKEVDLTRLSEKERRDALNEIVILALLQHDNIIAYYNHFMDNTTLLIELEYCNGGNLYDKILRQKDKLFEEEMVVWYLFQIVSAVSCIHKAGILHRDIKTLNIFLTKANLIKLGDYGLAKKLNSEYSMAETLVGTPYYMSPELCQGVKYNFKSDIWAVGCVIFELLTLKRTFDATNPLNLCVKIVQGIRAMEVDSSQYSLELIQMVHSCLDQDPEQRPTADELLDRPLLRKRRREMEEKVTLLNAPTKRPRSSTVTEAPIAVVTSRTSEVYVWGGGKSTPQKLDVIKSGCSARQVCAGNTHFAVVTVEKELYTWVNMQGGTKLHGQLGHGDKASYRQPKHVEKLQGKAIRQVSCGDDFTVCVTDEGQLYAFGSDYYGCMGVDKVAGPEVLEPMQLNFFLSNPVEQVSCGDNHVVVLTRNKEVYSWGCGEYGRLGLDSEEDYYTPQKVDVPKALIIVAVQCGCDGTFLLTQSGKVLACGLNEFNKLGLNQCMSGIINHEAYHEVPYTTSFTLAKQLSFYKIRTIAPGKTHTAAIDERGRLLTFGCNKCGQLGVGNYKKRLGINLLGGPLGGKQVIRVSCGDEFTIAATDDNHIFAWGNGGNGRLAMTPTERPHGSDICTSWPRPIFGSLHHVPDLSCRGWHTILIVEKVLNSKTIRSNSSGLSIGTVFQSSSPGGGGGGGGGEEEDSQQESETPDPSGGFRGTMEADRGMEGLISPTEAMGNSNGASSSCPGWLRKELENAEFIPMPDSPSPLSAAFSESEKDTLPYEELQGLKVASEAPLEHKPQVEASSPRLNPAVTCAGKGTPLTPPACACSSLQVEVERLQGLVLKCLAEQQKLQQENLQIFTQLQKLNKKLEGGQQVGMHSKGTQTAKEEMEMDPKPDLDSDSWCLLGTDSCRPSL

PRKAA2 (human) = PRKAA2 (human) (UniProt P54646)
MAPK6 (human) = MAPK6 (human) (UniProt Q16659)
Chain of MAPK6 (human) (Q16659 whole entry, looked up): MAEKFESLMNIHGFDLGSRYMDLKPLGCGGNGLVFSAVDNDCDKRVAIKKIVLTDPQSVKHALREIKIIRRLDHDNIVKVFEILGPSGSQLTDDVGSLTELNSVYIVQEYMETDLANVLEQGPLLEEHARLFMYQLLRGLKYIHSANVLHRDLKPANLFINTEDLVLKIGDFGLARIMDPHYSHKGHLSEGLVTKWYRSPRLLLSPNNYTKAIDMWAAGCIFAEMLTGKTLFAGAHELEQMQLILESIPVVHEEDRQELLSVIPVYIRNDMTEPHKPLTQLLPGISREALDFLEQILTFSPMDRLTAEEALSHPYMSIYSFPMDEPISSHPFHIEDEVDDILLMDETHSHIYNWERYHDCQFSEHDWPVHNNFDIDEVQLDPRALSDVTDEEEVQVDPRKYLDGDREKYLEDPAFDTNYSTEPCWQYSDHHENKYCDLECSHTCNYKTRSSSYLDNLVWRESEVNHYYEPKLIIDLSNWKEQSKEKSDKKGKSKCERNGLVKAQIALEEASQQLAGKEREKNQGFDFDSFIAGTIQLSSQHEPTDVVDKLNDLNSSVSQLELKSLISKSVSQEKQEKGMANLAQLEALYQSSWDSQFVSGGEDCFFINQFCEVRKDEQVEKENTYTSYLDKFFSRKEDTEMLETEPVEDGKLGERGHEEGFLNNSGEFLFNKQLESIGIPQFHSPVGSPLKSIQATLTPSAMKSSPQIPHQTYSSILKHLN

PRKCQ (human) = PRKCQ (human) (UniProt Q04759)
PLK3 (human) = PLK3 (human) (UniProt Q9H4B4)
DAPK2 (human) = DAPK2 (human) (UniProt Q9UIK4)
Chain of DAPK2 (human) (Q9UIK4 whole entry, looked up): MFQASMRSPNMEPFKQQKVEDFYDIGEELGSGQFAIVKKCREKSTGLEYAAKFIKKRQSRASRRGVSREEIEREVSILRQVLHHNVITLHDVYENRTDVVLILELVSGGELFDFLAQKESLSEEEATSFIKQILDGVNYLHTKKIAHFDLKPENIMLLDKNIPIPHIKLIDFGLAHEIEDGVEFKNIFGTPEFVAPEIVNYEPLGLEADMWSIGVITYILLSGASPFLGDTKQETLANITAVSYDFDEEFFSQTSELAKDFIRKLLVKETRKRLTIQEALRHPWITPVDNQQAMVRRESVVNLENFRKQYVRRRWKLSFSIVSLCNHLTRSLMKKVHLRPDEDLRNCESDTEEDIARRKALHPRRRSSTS

PRKD3 (human) = PRKD3 (human) (UniProt O94806)
SRPK3 (human) = SRPK3 (human) (UniProt Q9UPE1)
TESK1 (human) = TESK1 (human) (UniProt Q15569)
CSF1R (human) = CSF1R (human) (UniProt P07333)
CDK3 (human) = CDK3 (human) (UniProt Q00526)
IGF1R (human) = IGF1R (human) (UniProt P08069)
MAP2K6 (human) = MAP2K6 (human) (UniProt P52564)
ACVR2A (human) = ACVR2A (human) (UniProt P27037)
Chain of ACVR2A (human) (P27037 whole entry, looked up): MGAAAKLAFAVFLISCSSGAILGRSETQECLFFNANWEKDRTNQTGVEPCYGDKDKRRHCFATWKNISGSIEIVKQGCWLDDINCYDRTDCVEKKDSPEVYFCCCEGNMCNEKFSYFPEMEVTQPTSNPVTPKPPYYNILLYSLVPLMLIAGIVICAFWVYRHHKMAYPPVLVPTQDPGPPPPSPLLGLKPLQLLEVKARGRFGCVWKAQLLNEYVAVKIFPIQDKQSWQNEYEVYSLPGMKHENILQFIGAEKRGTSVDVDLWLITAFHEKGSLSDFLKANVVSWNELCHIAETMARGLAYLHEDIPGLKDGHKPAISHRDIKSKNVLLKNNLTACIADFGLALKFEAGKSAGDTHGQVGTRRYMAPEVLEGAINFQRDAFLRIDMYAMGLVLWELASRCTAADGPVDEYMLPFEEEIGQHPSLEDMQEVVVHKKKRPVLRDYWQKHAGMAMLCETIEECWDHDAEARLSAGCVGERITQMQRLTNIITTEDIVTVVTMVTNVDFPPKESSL

TGFBR2 (human) = TGFBR2 (human) (UniProt P37173)
[2] = molecular target: JAK2 JH1 catalytic (human) (UniProt O60674)
Chain of JAK2 JH1 catalytic (human) (O60674 whole entry, looked up): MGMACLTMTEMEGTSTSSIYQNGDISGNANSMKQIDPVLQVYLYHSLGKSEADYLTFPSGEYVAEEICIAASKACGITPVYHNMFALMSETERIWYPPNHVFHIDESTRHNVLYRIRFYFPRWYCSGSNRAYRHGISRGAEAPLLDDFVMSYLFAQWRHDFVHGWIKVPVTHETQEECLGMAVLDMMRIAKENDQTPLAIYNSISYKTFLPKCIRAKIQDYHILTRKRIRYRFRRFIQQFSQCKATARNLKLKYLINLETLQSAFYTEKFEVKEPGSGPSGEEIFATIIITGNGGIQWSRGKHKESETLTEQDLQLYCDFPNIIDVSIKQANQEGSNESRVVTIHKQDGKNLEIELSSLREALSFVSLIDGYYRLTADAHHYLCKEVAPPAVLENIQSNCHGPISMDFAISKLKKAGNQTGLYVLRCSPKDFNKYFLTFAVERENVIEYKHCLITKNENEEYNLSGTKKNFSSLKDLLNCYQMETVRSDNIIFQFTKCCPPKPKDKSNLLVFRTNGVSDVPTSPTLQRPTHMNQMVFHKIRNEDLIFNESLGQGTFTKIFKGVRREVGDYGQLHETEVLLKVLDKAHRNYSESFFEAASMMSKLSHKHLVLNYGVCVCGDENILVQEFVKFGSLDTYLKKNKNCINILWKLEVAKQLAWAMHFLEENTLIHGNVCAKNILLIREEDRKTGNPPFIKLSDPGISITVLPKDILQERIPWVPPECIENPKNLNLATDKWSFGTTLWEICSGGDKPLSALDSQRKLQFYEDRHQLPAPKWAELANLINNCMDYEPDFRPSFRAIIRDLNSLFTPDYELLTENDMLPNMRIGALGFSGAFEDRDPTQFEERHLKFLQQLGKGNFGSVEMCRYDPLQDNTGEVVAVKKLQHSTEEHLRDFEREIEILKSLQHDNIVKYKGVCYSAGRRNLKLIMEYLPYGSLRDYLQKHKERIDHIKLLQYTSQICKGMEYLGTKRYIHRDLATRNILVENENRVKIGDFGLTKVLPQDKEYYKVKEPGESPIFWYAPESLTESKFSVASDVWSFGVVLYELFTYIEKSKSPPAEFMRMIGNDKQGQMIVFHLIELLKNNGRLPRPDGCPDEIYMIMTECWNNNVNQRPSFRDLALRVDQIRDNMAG

CSK (human) = CSK (human) (UniProt P41240)
ICK (human) = ICK (human) (UniProt Q9UPZ9)
STK39 (human) = STK39 (human) (UniProt Q9UEW8)
AKT2 (human) = AKT2 (human) (UniProt P31751)

Chain of LIMK1 (human) (P53667 whole entry, looked up): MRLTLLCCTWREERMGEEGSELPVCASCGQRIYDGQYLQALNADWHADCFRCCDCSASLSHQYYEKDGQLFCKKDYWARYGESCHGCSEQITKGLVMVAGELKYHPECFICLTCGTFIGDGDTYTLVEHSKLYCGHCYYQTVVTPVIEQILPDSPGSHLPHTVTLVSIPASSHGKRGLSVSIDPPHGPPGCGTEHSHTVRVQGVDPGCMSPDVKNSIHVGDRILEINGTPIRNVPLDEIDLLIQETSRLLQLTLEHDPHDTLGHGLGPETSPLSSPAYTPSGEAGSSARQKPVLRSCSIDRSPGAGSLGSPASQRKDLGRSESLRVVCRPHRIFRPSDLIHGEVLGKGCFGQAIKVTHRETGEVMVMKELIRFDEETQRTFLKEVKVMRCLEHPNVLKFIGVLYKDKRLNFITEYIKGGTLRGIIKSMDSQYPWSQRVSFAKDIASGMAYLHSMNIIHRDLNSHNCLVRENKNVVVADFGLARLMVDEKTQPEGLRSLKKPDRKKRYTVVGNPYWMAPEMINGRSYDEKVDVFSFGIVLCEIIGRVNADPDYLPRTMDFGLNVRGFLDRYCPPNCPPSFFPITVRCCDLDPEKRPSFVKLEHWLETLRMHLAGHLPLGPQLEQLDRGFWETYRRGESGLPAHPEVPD

Compound	kinase still bound, per cent of control (PRKCE (human)) [%]	kinase still bound, per cent of control (ADCK3 (human)) [%]	kinase still bound, per cent of control (LIMK1 (human)) [%]	kinase still bound, per cent of control (PDPK1 (human)) [%]	kinase still bound, per cent of control (PRKD2 (human)) [%]	kinase still bound, per cent of control (INSRR (human)) [%]	kinase still bound, per cent of control (MAPKAPK5 (human)) [%]	kinase still bound, per cent of control (MAPK14 (human)) [%]	kinase still bound, per cent of control [1] [%]	kinase still bound, per cent of control (MYO3A (human)) [%]	kinase still bound, per cent of control (PRKACA (human)) [%]	kinase still bound, per cent of control (BMPR1B (human)) [%]	kinase still bound, per cent of control (SIK1 (human)) [%]	kinase still bound, per cent of control (NEK9 (human)) [%]	kinase still bound, per cent of control (PRKAA2 (human)) [%]	kinase still bound, per cent of control (MAPK6 (human)) [%]	kinase still bound, per cent of control (PRKCQ (human)) [%]	kinase still bound, per cent of control (PLK3 (human)) [%]	kinase still bound, per cent of control (DAPK2 (human)) [%]	kinase still bound, per cent of control (PRKD3 (human)) [%]	other results
Cc1n[nH]c2ccc(-c3cncc(OC[C@@H](N)Cc4c[nH]c5ccccc45)c3)cc12	0	100	100	100	0	100	100	100	32	100	0.85	100	100	100	100	100	0	100	1.3	1.6	kinase still bound, per cent of control (RIOK2 (human)): 6.2%; kinase still bound, per cent of control (TIE1 (human)): 31%; kinase still bound, per cent of control (SRPK3 (human)): 0.95%; kinase still bound, per cent of control (TESK1 (human)): 100%; kinase still bound, per cent of control (CSF1R (human)): 100%; kinase still bound, per cent of control (CDK3 (human)): 22%; kinase still bound, per cent of control (IGF1R (human)): 100%; kinase still bound, per cent of control (MAP2K6 (human)): 100%; kinase still bound, per cent of control (ACVR2A (human)): 100%; kinase still bound, per cent of control (TGFBR2 (human)): 100%; kinase still bound, per cent of control [2]: 100%; kinase still bound, per cent of control (CSK (human)): 100%
CS(=O)(=O)N1CCN(Cc2cc3nc(-c4cccc5[nH]ncc45)nc(N4CCOCC4)c3s2)CC1	100	100	100	100	100	100	100	100	100	100	100	100	100	100	100	100	100	100	100	100	kinase still bound, per cent of control (RIOK2 (human)): 100%; kinase still bound, per cent of control (ICK (human)): 100%; kinase still bound, per cent of control (STK39 (human)): 100%; kinase still bound, per cent of control (SRPK3 (human)): 100%; kinase still bound, per cent of control (TESK1 (human)): 100%; kinase still bound, per cent of control (CSF1R (human)): 100%; kinase still bound, per cent of control (CDK3 (human)): 100%; kinase still bound, per cent of control (IGF1R (human)): 100%; kinase still bound, per cent of control (MAP2K6 (human)): 100%; kinase still bound, per cent of control (ACVR2A (human)): 100%; kinase still bound, per cent of control (TGFBR2 (human)): 100%; kinase still bound, per cent of control [2]: 100%; kinase still bound, per cent of control (CSK (human)): 100%; kinase still bound, per cent of control (AKT2 (human)): 100%
CNC(=O)c1ccc(Nc2cc(Nc3ccccc3S(=O)(=O)C(C)C)c3cc[nH]c3n2)nc1	18	100	100	100	100	3.2	100	100	1.8	100	100	3.4	11	100	8.9	100	24	100	100	100	kinase still bound, per cent of control (RIOK2 (human)): 13%; kinase still bound, per cent of control (TIE1 (human)): 0.2%; kinase still bound, per cent of control (SRPK3 (human)): 12%; kinase still bound, per cent of control (TESK1 (human)): 30%; kinase still bound, per cent of control (CSF1R (human)): 30%; kinase still bound, per cent of control (CDK3 (human)): 100%; kinase still bound, per cent of control (IGF1R (human)): 2.2%; kinase still bound, per cent of control (MAP2K6 (human)): 29%; kinase still bound, per cent of control (ACVR2A (human)): 100%; kinase still bound, per cent of control (TGFBR2 (human)): 100%; kinase still bound, per cent of control [2]: 1.6%; kinase still bound, per cent of control (CSK (human)): 100%; kinase still bound, per cent of control (AKT2 (human)): 100%
C=CC(=O)Nc1ccc(CN(C(=O)Nc2c(Cl)c(OC)cc(OC)c2Cl)c2cc(Nc3ccc(N4CCN(C)CC4)cc3)ncn2)cc1	100	100	100	100	100	18	100	100	0.15	100	100	100	31	100	100	100	100	100	100	100	kinase still bound, per cent of control (RIOK2 (human)): 100%; kinase still bound, per cent of control (TIE1 (human)): 0%; kinase still bound, per cent of control (SRPK3 (human)): 100%; kinase still bound, per cent of control (TESK1 (human)): 100%; kinase still bound, per cent of control (CSF1R (human)): 0%; kinase still bound, per cent of control (CDK3 (human)): 100%; kinase still bound, per cent of control (IGF1R (human)): 16%; kinase still bound, per cent of control (MAP2K6 (human)): 100%; kinase still bound, per cent of control (ACVR2A (human)): 100%; kinase still bound, per cent of control (TGFBR2 (human)): 100%; kinase still bound, per cent of control [2]: 100%; kinase still bound, per cent of control (CSK (human)): 100%; kinase still bound, per cent of control (AKT2 (human)): 100%
CCN(CC)CCCCNc1ncc2cc(-c3cc(OC)cc(OC)c3)c(NC(=O)NC(C)(C)C)nc2n1	100	100	100	100	100	100	100	100	100	100	100	100	100	100	100	100	100	100	100	100	kinase still bound, per cent of control (TIE1 (human)): 12%; kinase still bound, per cent of control (TESK1 (human)): 100%; kinase still bound, per cent of control (CSF1R (human)): 6.6%; kinase still bound, per cent of control (CDK3 (human)): 100%; kinase still bound, per cent of control (IGF1R (human)): 100%; kinase still bound, per cent of control (MAP2K6 (human)): 100%; kinase still bound, per cent of control (ACVR2A (human)): 100%; kinase still bound, per cent of control (TGFBR2 (human)): 100%; kinase still bound, per cent of control [2]: 100%; kinase still bound, per cent of control (CSK (human)): 100%; kinase still bound, per cent of control (AKT2 (human)): 100%
